Assay results as given in ChEMBL document CHEMBL1201862, “PubChem BioAssay data set” (2004).
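In this assay, cells in 96-well plates receive the compound at five concentrations for 48 hours. Endpoints are linearly interpolated between the surrounding concentrations. Abbreviation: GI50, concentration required for 50% inhibition of growth.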 The source made the active and inactive calls. No stated cut-off is given here; in the data, active = GI50 up to about 1.1 µM and inactive = higher.

Columns and labels:
Experiment in all cases: DTP human tumour cell line panel, 48 h
A498 = system: A498
A549 = system: A549
DU-145 = system: DU-145
HOP-62 = system: HOP-62
HT-29 = system: HT-29
Hs-578T = system: Hs-578T
IGROV-1 = system: IGROV-1
MDA-MB-435 = system: MDA-MB-435
MOLT-4 = system: MOLT-4
NCI-H226 = system: NCI-H226
NCI-H23 = system: NCI-H23
NCI-H460 = system: NCI-H460
OVCAR-8 = system: OVCAR-8
SF-295 = system: SF-295
SF-539 = system: SF-539
SNB-75 = system: SNB-75
T47D = system: T47D
TK-10 = system: TK-10
UACC-257 = system: UACC-257
OVCAR-5 = system: OVCAR-5

SMILES | GI50 (A498) | GI50 (A549) | GI50 (DU-145) | GI50 (HOP-62) | GI50 (HT-29) | GI50 (Hs-578T) | GI50 (IGROV-1) | GI50 (MDA-MB-435) | GI50 (MOLT-4) | GI50 (NCI-H226) | GI50 (NCI-H23) | GI50 (NCI-H460) | GI50 (OVCAR-8) | GI50 (SF-295) | GI50 (SF-539) | GI50 (SNB-75) | GI50 (T47D) | GI50 (TK-10) | GI50 (UACC-257) | GI50 (OVCAR-5)
NCCN1CC2CCC(CC2)C1 | > 10 µM (inactive) | > 10 µM (inactive) | > 10 µM (inactive) | > 10 µM (inactive) | > 10 µM (inactive) | > 10 µM (inactive) | > 10 µM (inactive) | > 10 µM (inactive) | > 10 µM (inactive) | > 10 µM (inactive) | > 10 µM (inactive) | > 10 µM (inactive) | > 10 µM (inactive) | > 10 µM (inactive) | > 10 µM (inactive) | > 10 µM (inactive) | > 10 µM (inactive) | > 10 µM (inactive) | > 10 µM (inactive) | 
CCOC(=O)C1=C(N)N2C(=N[C@H]3CCCC[C@@H]32)N=C1 | > 100 µM (inactive) | > 100 µM (inactive) | > 100 µM (inactive) |  | > 100 µM (inactive) | > 100 µM (inactive) | > 100 µM (inactive) | > 100 µM (inactive) | > 100 µM (inactive) | 73.6 µM (inactive) | > 100 µM (inactive) | > 100 µM (inactive) | > 100 µM (inactive) | > 100 µM (inactive) | > 100 µM (inactive) | 38.3 µM (inactive) | > 100 µM (inactive) |  | > 100 µM (inactive) | > 100 µM (inactive)
FC(F)(F)c1cccc(-c2nc3ccccc3c3c2[C@@]2(N4CCCC4)CCCC[C@@H]32)c1 | 31.2 µM (inactive) | 31.7 µM (inactive) | 51.5 µM (inactive) | 32.3 µM (inactive) | 29.1 µM (inactive) | 43.6 µM (inactive) | 12 µM (inactive) | 23.6 µM (inactive) | 28.1 µM (inactive) | 51.2 µM (inactive) | 32.4 µM (inactive) | 28.1 µM (inactive) |  | 26.2 µM (inactive) | 37.1 µM (inactive) | 30.1 µM (inactive) | 76 µM (inactive) | 30.3 µM (inactive) | 44.9 µM (inactive) | 34.4 µM (inactive)
Cc1cc2c(cc1C)C(=O)/C(=N/Nc1ccc(F)cc1)CCO2 | > 100 µM (inactive) | > 100 µM (inactive) | > 100 µM (inactive) | > 100 µM (inactive) | 24.6 µM (inactive) | > 100 µM (inactive) | > 100 µM (inactive) | > 100 µM (inactive) | > 100 µM (inactive) | > 100 µM (inactive) | > 100 µM (inactive) | > 100 µM (inactive) | > 100 µM (inactive) | 27.1 µM (inactive) | > 100 µM (inactive) |  | 5.04 µM (inactive) | > 100 µM (inactive) | > 100 µM (inactive) | > 100 µM (inactive)
O=[N+]([O-])c1ccc(/C=N/CC2CCCN3CCCCC23)cc1 (centres undefined) | > 100 µM (inactive) | 36.2 µM (inactive) | > 100 µM (inactive) | > 100 µM (inactive) | 16.9 µM (inactive) | > 100 µM (inactive) | > 100 µM (inactive) | 61.7 µM (inactive) | 22.9 µM (inactive) |  | > 100 µM (inactive) | > 100 µM (inactive) | 43.2 µM (inactive) | > 100 µM (inactive) |  | 31.6 µM (inactive) | > 100 µM (inactive) | > 100 µM (inactive) | > 100 µM (inactive) | > 100 µM (inactive)
CCOC(=O)/C(=C/NC(=S)Nc1c(CC)cccc1C(C)(C)C)C(=O)c1ccccc1 | > 100 µM (inactive) | > 100 µM (inactive) | > 100 µM (inactive) | > 100 µM (inactive) | > 100 µM (inactive) | 13.2 µM (inactive) | > 100 µM (inactive) | > 100 µM (inactive) | > 100 µM (inactive) | > 100 µM (inactive) | > 100 µM (inactive) | 10 µM (inactive) | > 100 µM (inactive) | > 100 µM (inactive) | > 100 µM (inactive) | 29.3 µM (inactive) | > 100 µM (inactive) |  | > 100 µM (inactive) | > 100 µM (inactive)
O=C1NC(=S)N/C1=C\c1ccc(Sc2ccccc2C(=O)O)s1 | > 100 µM (inactive) |  | > 100 µM (inactive) | > 100 µM (inactive) | > 100 µM (inactive) | > 100 µM (inactive) | > 100 µM (inactive) | > 100 µM (inactive) | > 100 µM (inactive) | > 100 µM (inactive) | > 100 µM (inactive) | > 100 µM (inactive) | > 100 µM (inactive) | > 100 µM (inactive) |  | > 100 µM (inactive) | > 100 µM (inactive) | > 100 µM (inactive) | > 100 µM (inactive) | > 100 µM (inactive)
O=C1Oc2ccccc2C(=O)/C1=C/N1C(=O)/C(=C/c2ccc([N+](=O)[O-])cc2)SC1=S | 7.91 µM (inactive) | 26.7 µM (inactive) | 25.7 µM (inactive) | 18.2 µM (inactive) | 32.6 µM (inactive) | 6.59 µM (inactive) | 32.3 µM (inactive) | 16.4 µM (inactive) | 29.8 µM (inactive) | 15.1 µM (inactive) | 14 µM (inactive) | 18.5 µM (inactive) | 21.8 µM (inactive) | 17.7 µM (inactive) | 21.8 µM (inactive) | 16.6 µM (inactive) | 5.98 µM (inactive) |  | 25.8 µM (inactive) | 34.4 µM (inactive)
O=c1[nH][nH]c(=O)n1CCCCCCn1c(=O)[nH][nH]c1=O | > 100 µM (inactive) | > 100 µM (inactive) | > 100 µM (inactive) |  | > 100 µM (inactive) | > 100 µM (inactive) |  | > 100 µM (inactive) | > 100 µM (inactive) | > 100 µM (inactive) | > 100 µM (inactive) | > 100 µM (inactive) | > 100 µM (inactive) |  | > 100 µM (inactive) | > 100 µM (inactive) | > 100 µM (inactive) | > 100 µM (inactive) | > 100 µM (inactive) | > 100 µM (inactive)
O=C(C[n+]1ccccc1)N/N=C(\Cc1nc2ccc([N+](=O)[O-])cc2nc1O)C(=O)Nc1cc(Cl)c(Cl)cc1Cl | > 100 µM (inactive) | > 100 µM (inactive) | > 100 µM (inactive) |  | > 100 µM (inactive) | > 100 µM (inactive) | > 100 µM (inactive) | > 100 µM (inactive) | > 100 µM (inactive) | 50.5 µM (inactive) | > 100 µM (inactive) | 87.9 µM (inactive) | > 100 µM (inactive) | > 100 µM (inactive) | > 100 µM (inactive) | 19.4 µM (inactive) | 68.7 µM (inactive) |  | > 100 µM (inactive) | > 100 µM (inactive)
OCC1OC(c2cccc3cc(O)c(O)cc23)CC1O (centres undefined) | > 100 µM (inactive) | > 100 µM (inactive) | > 100 µM (inactive) | > 100 µM (inactive) | > 100 µM (inactive) | > 100 µM (inactive) | 64 µM (inactive) | > 100 µM (inactive) | > 100 µM (inactive) | 66.7 µM (inactive) |  | 80.7 µM (inactive) | > 100 µM (inactive) | > 100 µM (inactive) | > 100 µM (inactive) | > 100 µM (inactive) | > 100 µM (inactive) | > 100 µM (inactive) | > 100 µM (inactive) | > 100 µM (inactive)
O=c1c2c3c(sc2nc2n1N=CN(c1ccccc1)C2)CCCC3 | > 100 µM (inactive) | > 100 µM (inactive) | > 100 µM (inactive) | > 100 µM (inactive) | > 100 µM (inactive) | > 100 µM (inactive) | > 100 µM (inactive) | > 100 µM (inactive) | > 100 µM (inactive) | > 100 µM (inactive) | > 100 µM (inactive) | > 100 µM (inactive) | > 100 µM (inactive) | > 100 µM (inactive) |  | > 100 µM (inactive) | > 100 µM (inactive) | > 100 µM (inactive) | > 100 µM (inactive) | > 100 µM (inactive)
C/C(=N\Nc1ccc([N+](=O)[O-])cc1[N+](=O)[O-])c1sc(-n2nc(-c3ccccc3)cc2-c2ccccc2)nc1C | 41 µM (inactive) |  | 35.5 µM (inactive) | 70.3 µM (inactive) | 17 µM (inactive) | 78.9 µM (inactive) | 0.897 µM (active) | 33 µM (inactive) | 16.9 µM (inactive) | 34.1 µM (inactive) | 32.9 µM (inactive) | 30.8 µM (inactive) | 30.5 µM (inactive) | 35.7 µM (inactive) | 46.8 µM (inactive) | 45.5 µM (inactive) | 13.8 µM (inactive) | 27.9 µM (inactive) | 20.8 µM (inactive) | > 100 µM (inactive)
COc1cc2c(cc1OCCCOc1cc3c(cc1OC)C(=O)N1CCC[C@H]1C(=O)N3)N=C[C@@H]1CCCN1C2=O | 17.3 µM (inactive) | 22.1 µM (inactive) | 36.7 µM (inactive) | 34.2 µM (inactive) | 16.9 µM (inactive) | 29 µM (inactive) | 14.6 µM (inactive) | 15.8 µM (inactive) | 0.206 µM (active) | 14.6 µM (inactive) | 23.6 µM (inactive) | 19.9 µM (inactive) | 23.4 µM (inactive) | 15.8 µM (inactive) |  | 10.1 µM (inactive) | 7.94 µM (inactive) | 25.8 µM (inactive) | 24.5 µM (inactive) | 25.1 µM (inactive)
Oc1cc(-c2ccccc2)nc2ncccc12 | > 100 µM (inactive) | 0.385 µM (active) | 0.298 µM (active) | 1.15 µM (inactive) | 0.0646 µM (active) | 0.16 µM (active) | 0.2 µM (active) | 0.0133 µM (active) | 0.0962 µM (active) | 0.502 µM (active) | 0.203 µM (active) | 0.12 µM (active) | 0.22 µM (active) | 0.0698 µM (active) | 0.109 µM (active) | 0.0975 µM (active) | > 100 µM (inactive) | 0.206 µM (active) | 0.203 µM (active) | 
